How the values were obtained:
[1] = test system: TNF-α secretion by THP-1 cells; assay: TNF-α secretion in THP-1 cells (ELISA); type: cell-based, human; settings: any concentration between 1 ng/ml and 10 μg/ml; supernatants at 4, 16 and 24 hours
Method: The human myelomonocytic cell line THP-1 is commonly used for the analysis of the proinflammatory status of various compounds. THP-1 cells (American Type Culture Collections Cat. No. 202-TIB) were grown in RPMI 1640, 10% heat inactivated fetal bovine serum (FBS) and […] β-mercaptoethanol to a cell density of between 4×10^5/ml and 7×10^5/ml. Cells were removed from culture and resuspended at 1×10^6 cells/ml in RPMI 1640 containing 5% fetal bovine serum. Resuspended cells were then pipetted into sterile, disposable polystyrene 150×25 mm petri dishes and treated with the natural maturational agent 1α, 25-dihyroxyvitamin D3 at 1×10^−7 M between 24 and 72 hours depending on the degree of maturation desired. These maturationally “pretreated” cells were then washed 3× in RPMI 1640 containing more than 2% but less than 10% fetal bovine serum. After the third wash cells were resuspended in RPMI 1640 containing 5% FBS plus 2% human AB sera (Irvine Scientific) at 5×10^5 cells/ml and transferred at 2 ml per well in a tissue culture grade, flat bottom polystyrene 24 well plate. […] Cytokine concentration in the THP-1 culture supernatants were quantified using standard human cytokine ELISA kits from R&D Laboratories. […]

[2] = test system: canine model of repetitive transient regional ischemia; assay: Myocardial stunning in dogs, repetitive transient regional ischemia; type: in vivo, dog
Method: The compound of the subject invention provided both an acute and delayed protective effect against cardiac stunning in dogs. Pretreatment of dogs with the compound of the subject invention 10 minutes and 24 hours prior to ischemia produced significant improvement in the recovery of regional segment shortening (%SS) in the ischemic-reperfused myocardium of anesthetized dogs subjected to a multiple ischemia/reperfusion stunning protocol. Dogs were subjected to five 5-minute periods of coronary artery occlusion interspersed with 10 minute periods of reperfusion and finally followed by 2 hours of reperfusion. Regional systolic shortening in the subendocardium of the ischemic area was determined by sonomicrometry by placing a set of piezoelectric crystals in the subendocardium approximately 10-15 mm apart. Regional myocardial blood flow was determined by the radioactive microsphere technique during the first 5 min occlusion period and at the end of 2 h of reperfusion. Hemodynamics and blood gases were also measured at various times throughout the experiment. There was no significant differences between the control and pretreated groups in body weight, left ventricular weight, area at risk weight or the area at risk as a % of the left ventricle. […]

rabbits (fever response) = assay: Three rabbit USP pyrogen test; type: in vivo; set-up: key to Average Temperature Rise: body temperature rise in °F (decreases recorded as zero)
Method: The compound of the subject invention was evaluated for pyrogenicity using a standard three rabbit USP pyrogen test (NAMSA, Northwood Ohio) at dose levels between 10 and 1000 μg/kg. Three rabbits were intravenously administered the compound in 40% propylene glycol and 10% ethanol in water at varying doses diluted one to one in D5W prior to dosing. Each animal's body temperature was monitored over the course of 4 h. Pyrogenic doses and borderline pyrogenic doses were defined by established USP definitions. Any temperature decrease was recorded as a rise of zero. An individual rise in temperature of less than 0.5° F. was considered non-pyrogenic.

## CCCCCCCCCCCCCCCCCC(=O)O[C@H](CCCCCCCCCCC)CC(=O)N[C@H]1[C@H](OC[C@H]2OC(O)[C@H](NC(=O)C[C@@H](CCCCCCCCCCC)OC(=O)CCCCCCCCCCCCCCC)[C@@H](O)[C@@H]2O)O[C@H](CO)[C@@H](OP(=O)(O)O)[C@@H]1OC(=O)C[C@@H](CCCCCCCCCCC)OC(=O)CCCCCCCCCCCCC (stereo partly drawn) [L34, 2-Deoxy-6-O-[2-deoxy-4-O-phosphono-3-O-[(R)-3-tetradecanoyloxytetradecanoyl]-2-[(R)-3-octadecanoyloxytetradecanoylamino]-β-D-glucopyranosyl]-2-[(R)-3-hexadecanoyloxytetradecanoylamino]-D-glucopyranose]
[1]
  TNF-α secretion: did not induce detectable
[2]; 24 h pretreatment, after 1st and 4th occlusion and all times of final 2 h reperfusion, FIG. 6
  recovery of regional wall motion (%SS) vs control group: significantly greater recovery of regional wall motion (%SS)
[2]; pretreatment 10 min prior to first occlusion, after 1st, 2nd, 4th occlusion and all times of final 2 h reperfusion, FIG. 5
  recovery of regional wall motion (%SS) vs control group: significantly greater recovery of regional wall motion (%SS)
Rabbits (fever response); L34 dose 10 μg/kg i.v.
  Average Temperature Rise: 0.14
Rabbits (fever response); L34 dose 20 μg/kg i.v.
  Average Temperature Rise: 0.17
Rabbits (fever response); L34 dose 30 μg/kg i.v.
  Average Temperature Rise: 0.17
Rabbits (fever response); L34 dose 40 μg/kg i.v.
  Average Temperature Rise: 0.00
Rabbits (fever response); L34 dose 60 μg/kg i.v.
  Average Temperature Rise: 0.10
Rabbits (fever response); L34 dose 80 μg/kg i.v.
  Average Temperature Rise: 0.13
Rabbits (fever response); L34 dose 120 μg/kg i.v.
  Average Temperature Rise: 0.23
Rabbits (fever response); L34 dose 160 μg/kg i.v.
  Average Temperature Rise: 0.17
Rabbits (fever response); L34 dose 240 μg/kg i.v.
  Average Temperature Rise: 0.00
Rabbits (fever response); L34 dose 360 μg/kg i.v.
  Average Temperature Rise: 0.30
Rabbits (fever response); L34 dose 480 μg/kg i.v.
  Average Temperature Rise: 0.06
Rabbits (fever response); L34 dose 500 μg/kg i.v.
  Average Temperature Rise: 0.12
Rabbits (fever response); L34 dose 1000 μg/kg i.v.
  Average Temperature Rise: 0.10
Rabbits (fever response); i.v., dose levels between 10 and 1000 μg/kg
  pyrogenicity: not pyrogenic at any of the doses tested
